Results as given in patent US20190154879A1, “Silicone Hydrogel Contact Lenses Having Improved Lubricity” (CooperVision International Holding Company, LP, priority 2016, published 2019).

How the values were obtained:
[1] = Hydrophilic-lipophilic balance (HLB) value; type: physicochemical; details: calculated as twenty times molecular weight of hydrophilic portion divided by total molecular weight
rabbits = experiment: Cytotoxicity by ocular irritation study (ISO 10993-10); type: in vivo; details: 0.035% in PBS, ocular irritation study in rabbits (ISO 10993-10)
Text: An advantage of the surfactants used herein is that they are non-cytotoxic at concentrations effective at reducing surface concentration of silicon, and thus may be left in the final packaged contact lens. In contrast, other methods for reducing surface concentration of silicone of silicone hydrogel contact lenses employ toxic compounds that must be extracted from the contact lens prior to final packaging (see e.g. US Pat. Appin. Publ. No. 2014/0275434). Thus, the prior art method requires additional processing steps in order to provide an ophthalmically-acceptable contact lens, which add to manufacturing costs. Further, there is a desire to minimize the use of hazardous chemicals in manufacturing sites, which is another advantage of the present invention compared to the prior art. In specific examples, the concentration of the surfactant in the packaging solution prior to contact with the contact lens is from about 0.01 wt. % or 0.02 wt. %, up to about 0.05 wt. %, 0.075 wt. %, or 0.1 wt. %. Throughout this disclosure, when a series of lower limit ranges and a series of upper limit ranges are provided, all combinations of the provided ranges are contemplated as if each combination were specifically listed. […]
Because of the low CoF values obtained for both lenses, tyloxapol and RLM-100 were evaluated further for use as a possible packaging solution additive.

tyloxapol
HLB value [1]: about 13 | cytotoxicity (rabbits): non-cytotoxic
